The values that follow come from patent US8802596B2, “Multi-functional ionic liquid compositions for overcoming polymorphism and imparting improved properties for active pharmaceutical, biological, nutritional, and energetic ingredients” (Board of Trustees of the University of Alabama, priority 2005, dated 2014).

Series [1] in a line: Thermal stability (thermalgravimetric analysis, TGA). In kind it is physicochemical. The following applies: for Tonset / Tonset5%: TGA; for Tonset(5%) - onset temperature for 5% of the decomposition / Td - temperature of total decomposition / Tonset - onset temperature of the decomposition: Table 2, no unit in table (temperature is in ° C.).
The subject of series [2] is S. aureus, E. faecium, E. coli, C. albicans. The series can be described thus: Average value of MIC / MBC over the four cultures. In kind it is cell-based. As to conditions: for MBC Average value / MIC Average value: average over S. aureus, E. faecium, E. coli, C. albicans; for Biological activity compared with the starting quaternary ammonium chloride (average MIC and MBC): in words, refers to Tables 3 and 4. Here is the method:
(§1) In the biological activity measurements (tests) following bacteria were used: Staphylococcus aureus ATCC 6538, Enterococcus faecium ATCC 49474, Escherichia coli ATCC 25922 and fungi Candida albicans ATCC 10231.
(§2) Microbiological activity tests were performed using dissolution method. Determinations were performed on liquid base (background): Mueller-Hinton for bacteria and Sabouraud for fungi. Starting solution had the concentration of 1 g/cm^3. From this solution, all other solutions (lower concentrations) were prepared. To those solutions, 0.1 cm^3 of the suspensions of standard microorganisms at a concentration of 10^6 cfu cm^3 were added. The samples with bacteria were incubated for 24 h at the temperature of 37° C., and with fungi there were incubated for 48 h at the temperature of 22° C. After incubation time the MIC, Minimal Inhibitory Concentration, minimal concentration of the investigated compound at which the growth of the microorganisms is stopped (visually), was specified (recorded) for every sample. To define the MBC, Minimal Bactericidal Concentration, additionally to each solution the 10^−6 cm^3 of the inactivator was added on the base (background) (0.3% lecithin, 3% polysorbate 80 and 0.1% L-cysteine). The samples with bacteria were incubated for 48 h in the temperature of 37° C. The fungi samples were incubated for 5 days at the temperature of 22° C. MBC values were defined (specified) as the concentration at which the level of the reduction of the microorganisms was not lower than 99.99%.

Series [3] deals with Escherichia coli ATCC 25922. In words: Microbiological activity test (dilution method), MIC and MBC. In kind it is cell-based. Here is the method:
as §1, §2

Series [4] deals with Enterococcus faecium ATCC 49474. Described as above. In kind it is cell-based. On the procedure: as §1, §2
For series [5], the system named is Staphylococcus aureus ATCC 6538. The description is as above. In kind it is cell-based. Here is the method:
as §1, §2

Series [6] concerns Candida albicans ATCC 10231. The series is described as above. In kind it is cell-based. Here is the method: as §1, §2
The conditions of series [7]: background statement, in words; cited from earlier work.
Series [8] has as its system proteins in the body. The following applies: cited from earlier work.
For series [9] the following is noted: in words.
Series [10] relates to Swiss-Webster male mice. As to conditions: tail dipped 60 seconds in DMSO solution, 1 mM and 100 mM; 47.5° C. water bath; 15, 30, 60, 120 minutes; versus lidocaine hydrochloride.
Method: The rat tail flick test is used to determine the local anesthetic ability of lidocaine docusate compared with lidocaine hydrochloride. The rat is immobilized in a restraining sock, so that the tail is only exposed. The tail is dipped into hot water and the number of times the rat flicks its tail is recorded. When the anesthetic is applied, the rat's tail should be numb therefore it will not feel the hot water and the number of tail flicks should decrease.
For this test Swiss-Webster male mice were used. They were habituated in a restraining sock 3 times during a 10 day period. A baseline tail flick was determined for each rat in 47.5° C. water bath. […] The number of tail flicks was determined at 15, 30, 60, and 120 minutes in the 47.5° C. water bath. […] Using the following equation, one can determine the % MPE at each time for the two compounds in question. % MPE=(TFi−BL)/(10−BL)*100 • TFi=latency to withdraw tail from hot water • BL=baseline withdrawal time without the drug
Setting [11] is: E. coli, incubated 24 h at 37° C., Mueller-Hinton.
Where [12] appears, read: E. coli, reduction not lower than 99.99%, 48 h at 37° C.
The mark [13] stands for this setting: E. faecium, incubated 24 h at 37° C., Mueller-Hinton.
[14] abbreviates: E. faecium, reduction not lower than 99.99%, 48 h at 37° C.
The mark [15] stands for this setting: S. aureus, incubated 24 h at 37° C., Mueller-Hinton.
The mark [16] stands for this setting: S. aureus, reduction not lower than 99.99%, 48 h at 37° C.
Setting [17] is: C. albicans, incubated 48 h at 22° C., Sabouraud.
Where [18] appears, read: C. albicans, reduction not lower than 99.99%, 5 days at 22° C.

“Also recorded” adds a separate entry of the source.

`CCCCCCCCCCCCOC[N+](C)(C)CCOC(C)=O.O=C([O-])c1ccccc1` [(2-acetoxyethyl)dodecyloxymethyldimethylammonium Benzoate] came in with a Tonset in series [1] of 122 °C.

For the compound `CCCCCCCOC[N+](C)(C)CCOC(C)=O.O=C([O-])c1ccccc1` [(2-acetoxyethyl)heptyloxymethyldimethylammonium benzoate], the Tonset in series [1] was 120 °C.

Turning to `CCCCCCCCCCCOC[N+](C)(C)CCO.O=C([O-])c1ccccc1` [(2-hydroxyethyl)dimethylundecyloxymethylammonium benzoate], in [1], the Tonset worked out at 127 °C.

On to `CCCCCCCCCC[N+](C)(C)CCCCCCCCCC.[Cl-]` [DDAC, didecyldimethylammonium chloride, reference compound], for which the MBC in series [2] (read-out: MBC Average value) is 27.4 µg/mL; in series [3] (Escherichia coli, ATCC25922, 48 h), 31.2 µg/mL; in series [4] (Enterococcus faecium, ATCC49474, 48 h), 31.2 µg/mL; in [5] (Staphylococcus aureus, ATCC6538, 48 h), 31.2 µg/mL; in series [6] (Candida albicans, ATCC10231, 120 h), 16 µg/mL. For the same compound, the MIC in series [2] (read-out: MIC Average value) stood at 5.5 µg/mL; in [3] (Escherichia coli, ATCC25922, 24 h), 8 µg/mL; in series [4] (Enterococcus faecium, ATCC49474, 24 h), 4 µg/mL; in series [5] (Staphylococcus aureus, ATCC6538, 24 h), 2 µg/mL; in [6] (Candida albicans, ATCC10231, 48 h), 8 µg/mL.

In series [1], `CCCCCCCCCC[N+](C)(C)CCCCCCCCCC.CCCCCCOC(=O)CC(C(=O)OCCCCCC)S(=O)(=O)O` (stereo not drawn) [Didecyldimethylammonium Colawet MA-80] yielded a Tonset of 226 °C and a Tonset5% of 218 °C.

In the case of `CCCCCCCCCC[N+](C)(C)CCCCCCCCCC.CCN1CCN(C(=O)NC(C(=O)NC2C(=O)N3C2SC(C)(C)C3C(=O)[O-])c2ccccc2)C(=O)C1=O` (stereo not drawn) [Didecyldimethylammonium Piperacillin], in series [1], the Tonset turned out to be 205 °C and the Tonset5% is 181 °C.

In series [1], `CC([O-])=NS(=O)(=O)c1ccc(N)cc1.CCCCCCCCCC[N+](C)(C)CCCCCCCCCC` [Didecyldimethylammonium Sulfacetamide, didecyldimethylammonium (DDA) sulfacetamide] registered a Tonset of 200.2 °C and a Tonset5% of 183.3 °C.

For `CCCCCCCCCCCCCCCC[n+]1ccccc1.CCCCCCOC(=O)CC(C(=O)OCCCCCC)S(=O)(=O)[O-]` (stereo not drawn) [Hexadecylpyridinium Colawet MA-80], in series [1], the Tonset stood at 262 °C and the Tonset5% was found to be 248 °C.

In [1], `CC(=O)NS(=O)(=O)c1ccc(N)cc1.CCCCCCCCCCCCCCCC[n+]1ccccc1` [Hexadecylpyridinium Sulfacetamide, hexadecylpyridinium sulfacetamide] came in with a Tonset of 219 °C and a Tonset5% of 211 °C.

Consider `CCC(C)n1ncn(-c2ccc(N3CCN(c4ccc(OCC5COC(Cn6cncn6)(c6ccc(Cl)cc6Cl)O5)cc4)CC3)cc2)c1=O` (stereo not drawn) [Itraconazole, itraconazole], for which, in series [7], the “Solubility in organic solvents” value is given as “slightly soluble in alcohol; also recorded: freely soluble in dichloromethane” and the Solubility in water result was “insoluble in water”. Moreover, the “Drug bound to proteins in the body” value in series [8] was 99.8%.

Turning to `CC1=CC(=O)[N-]S(=O)(=O)O1.CCCCCCCCCCCC[N+](C)(C)Cc1ccccc1` [[BA][Ace], benzalkonium acesulfamate], the “MBC Average value” in series [2] was determined as 54.7 ppm. Besides, in series [2], the “MIC Average value” came out at 14.8 ppm. The “Biological activity compared with the starting quaternary ammonium chloride (average MIC and MBC)” value in series [2] is listed as “high activity of the salt, slightly lower than that of the starting benzalkonium chloride”. Further, the MIC is listed as 31.2 ppm in series [3] (setting [11]), 8 ppm in series [4] (setting [13]), 4 ppm in series [5] (setting [15]) and 16 ppm in [6] (setting [17]). For the same compound, the MBC was 125 ppm in series [3] (setting [12]), 31.2 ppm in series [4] (setting [14]), 31.2 ppm in [5] (setting [16]) and 31.2 ppm in series [6] (setting [18]). In addition, in series [1], the “Tonset(5%) - onset temperature for 5% of the decomposition” value (“Tonset(5%) - onset temperature” below) was found to be 186.

Consider `CCCCCCCCCCCC[N+](C)(C)Cc1ccccc1.O=C1[N-]S(=O)(=O)c2ccccc21` [[BA][Sac], benzalkonium saccharinate], for which the “MBC Average value” in series [2] was 35.2 ppm. The “MIC Average value” in [2] was 11 ppm. Also, the MIC in series [3] (setting [11]) was 16 ppm; in series [4] (setting [13]), 8 ppm; in [5] (setting [15]) it was 4 ppm; in series [6] (setting [17]) it was 16 ppm. Further, the MBC is given as 62.5 ppm in [3] (setting [12]), 16 ppm in series [4] (setting [14]), 31.2 ppm in [5] (setting [16]) and 31.2 ppm in series [6] (setting [18]). The “Td - temperature of total decomposition” value in series [1] came to 227. In addition, the “Tonset - onset temperature of the decomposition” value (“Tonset - onset temperature” for short) in [1] was found to be 206. Moreover, the “Tonset(5%) - onset temperature” value in series [1] is listed as 176.

Consider `CC1=CC([O-])=NS(=O)(=O)O1.CCCCCCCCCC[N+](C)(C)CCCCCCCCCC` [[DDA][Ace], didecyldimethylammonium acesulfamate], for which, in series [2], the “MBC Average value” is on record as 31.4 ppm. In addition, the “MIC Average value” in series [2] is 12 ppm. The “Biological activity compared with the starting quaternary ammonium chloride (average MIC and MBC)” value in series [2] is reported as “only slight difference in the biological activity”. The MIC in series [3] (setting [11]) came to 16 ppm; in series [4] (setting [13]), 8 ppm; in series [5] (setting [15]), 8 ppm; in series [6] (setting [17]), 16 ppm. For the same compound, the MBC in series [3] (setting [12]) was found to be 62.5 ppm; in series [4] (setting [14]), 31.2 ppm; in series [5] (setting [16]) it was 16 ppm; in series [6] (setting [18]) it was 16 ppm. Besides, in [1], the “Td - temperature of total decomposition” value is 245. For the same compound, in series [1], the “Tonset - onset temperature” value turned out to be 201. Besides, the “Tonset(5%) - onset temperature” value in series [1] is listed as 182.

In the case of `CCCCCCCCCC[N+](C)(C)CCCCCCCCCC.O=C1[N-]S(=O)(=O)c2ccccc21` [[DDA][Sac], Didecyldimethylammonium Saccharinate], in [2], the “MBC Average value” is reported as 27.6 ppm. In addition, the “MIC Average value” in series [2] is on record as 11 ppm. Further, the “Biological activity compared with the starting quaternary ammonium chloride (average MIC and MBC)” value in series [2] is “high in comparison with starting material”. Moreover, the MIC in series [3] (setting [11]) stood at 16 ppm; in [4] (setting [13]), 8 ppm; in series [5] (setting [15]) it was 4 ppm; in series [6] (setting [17]) it was 16 ppm. For the same compound, the MBC in [3] (setting [12]) is recorded as 16 ppm; in series [4] (setting [14]) it was 16 ppm; in [5] (setting [16]), 62.5 ppm; in series [6] (setting [18]), 16 ppm. The “Td - temperature of total decomposition” value in series [1] was 221. The “Tonset - onset temperature” value in [1] stood at 211. For the same compound, the “Tonset(5%) - onset temperature” value in series [1] came to 184.

Consider `CCCCCCCCCC[N+](C)(C)CCCCCCCCCC.Cc1ccc(S(=O)(=O)[O-])cc1` [didecyldimethylammonium p-toluenesulfonate], for which, in [9], the “Solubility / miscibility in water” value was “insoluble in water and hexane”; the “Solubility in organic solvents / other media” value is on record as “soluble in chloroform, acetone, DMSO”.

For the compound `CCCCC(CC)COC(=O)CC(C(=O)OCC(CC)CCCC)S(=O)(=O)O.CCN(CC)CC(=O)Nc1c(C)cccc1C` (stereo not drawn) [lidocaine docusate], the “Anesthetic ability (tail flick, % MPE graphs)” value in series [10] is “higher and longer anesthetic ability than lidocaine hydrochloride”.

In series [1], “didecyldimethylammonium N-[4-[[(2-amino-1,4-dihydro-4-oxo-6-pteridinyl)methyl]amino]benzoyl]-L-glutamate” returned a Tonset of 201 °C and a Tonset5% of 153 °C.
